This passage reports EC50 results from patent US10166218B2, “3-(1H-indol-2-yl)-1H-pyrazolo[3,4-C]pyridines and therapeutic uses thereof” (Samumed, LLC, priority 2015, dated 2019).

By EC50 is commonly meant the concentration needed to bring the measured effect to its halfway point. A higher EC50 goes with a need for much substance.

Holding throughout (assay type): cell-based
Assay [1] has as its system primary human fibroblasts derived from IPF patients (LL29 cells) treated with TGF-β1; α-smooth muscle actin (αSMA). Put plainly: Inhibition of the fibrotic process: αSMA staining in TGF-β1 treated primary human fibroblasts from IPF patients (LL29 cells). The conditions noted are these: Fibroblast, 96 h, TGF-β1 20 ng/mL, 4 days, % cells positive for αSMA. The source says: Representative compounds were screened using primary human fibroblasts (derived from IPF patients) treated with TGF-β1 to determine their ability to inhibit the fibrotic process.
Primary human fibroblasts derived from IPF patients (LL29 cells) [^1Xiaoqiu Liu, et. al., “Fibrotic Lung Fibroblasts Show Blunted Inhibition by cAMP Due to Deficient cAMP Response Element-Binding Protein Phosphorylation”, Journal of Pharmacology and Experimental Therapeutics (2005), 315(2), 678-687; ^2Watts, K. L., et. al., “RhoA signaling modulates cyclin D1 expression in human lung fibroblasts; implications for idiopathic pulmonary fibrosis”, Respiratory Research (2006), 7(1), 88] were obtained from American Type Culture Collection (ATCC) and expanded in F12 medium supplemented with 15% Fetal Bovine Serum and Penicillin/Streptomycin.
Each compound was dissolved in DMSO as a 10 mM stock and used to prepare compound source plates. Serial dilution (1:2, 11-point dose-response curves from 10 μM to 1.87 nM) and compound transfer was performed using the ECHO 550 (Labcyte, Sunnyvale, Calif.) into 384-well clear bottom assay plates (Greiner Bio-One) with appropriate DMSO backfill for a final DMSO concentration of 0.1%. LL29 cells are plated at 1,500 cells/well in 80 μL/well F12 medium supplemented with 1% Fetal Bovine Serum. One hour after addition of the cells, TGF-β1 (Peprotech; 20 ng/mL) was added to the plates to induce fibrosis (ref. 1 and 2 above). Wells treated with TGF-β1 and containing DMSO were used as controls. Cells were incubated at 37° C. and 5% CO2 for 4 days. Following incubation for 4 days, SYTOX green nucleic acid stain (Life Technologies [Thermo Fisher Scientific]) was added to the wells at a final concentration of 1 μM and incubated at room temperature for 30 min. Cells were then fixed using 4% formaldehyde (Electron Microscopy Sciences), washed 3 times with PBS followed by blocking and permeabilization using 3% Bovine Serum Albumin (BSA; Sigma) and 0.3% Triton X-100 (Sigma) in PBS. Cells were then stained with antibody specific to α-smooth muscle actin (αSMA; Abcam) (ref. 1 and 2 above) in 3% Bovine Serum Albumin (BSA; Sigma) and 0.3% Triton X-100 (Sigma) in PBS, and incubated overnight at 4° C. Cells were then washed 3 times with PBS, followed by incubation with Alexa Flor-647 conjugated secondary antibody (Life Technologies [Thermo Fisher Scientific]) and DAPI at room temperature for 1 hour. Cells were then washed 3 times with PBS and plates were sealed for imaging. αSMA staining was imaged by excitation at 630 nm and emission at 665 nm and quantified using the Compartmental Analysis program on the CellInsight CX5 (Thermo Scientific). Dead or apoptotic cells were excluded from analysis based on positive SYTOX green staining. % of total cells positive for αSMA were counted in each well and normalized to the average of 11 wells treated with TGF-β1 on the same plate using Dotmatics' Studies Software. The normalized averages (fold change over untreated) of 3 replicate wells for each compound concentration were used to create dose-responses curves and EC50 values were calculated using non-linear regression curve fit in the Dotmatics' Studies Software. For EC50 of >10 μM, the percent inhibition at 10 μM is provided.

Assay [2] relates to IL-6 (THP-1 cells). Put plainly: Inhibition of IL-6 in LPS-stimulated THP-1 human monocyte cells (HTRF). To be noted: inhibition of IL-6 in LPS-stimulated THP-1 cells, HTRF, 10-point dose-response starting from 10 μM. Here is the method: Human monocyte cell line (THP-1 cells; Catalog # TIB-202, ATCC, Manassas, Va.) were cultured in Roswell Park Memorial Institute (RPMI) 1640 Medium (Catalog #21870-100, Buffalo, N.Y.) with 1% L-glutamine, 1% HEPES, 1% Sodium Pyruvate, 2% Sodium Bicarbonate supplemented with 100 units/mL penicillin, 50 μg/mL streptomycin, 2-mercaptoethanol (0.05 mM) [basal medium] and 10% fetal bovine serum (Catalog #16140089, Life Technologies, Carlsbad, Calif.) at 37° C. and 5% CO2.
THP-1 cells were cultured in basal media with 1% FBS for 24 hours before the start of the assay. Each compound was dissolved in DMSO as a 10 mM stock and used to prepare compound source plates. Serial dilution (1:3, 10-point dose-response curves starting from 10 μM) and compound transfer was performed using the ECHO 550 (Labcyte, Sunnyvale, Calif.) into 384-well white low volume assay plates (Greiner Bio-One) with appropriate DMSO backfill for a final DMSO concentration of 0.1%. THP-1 cells were plated at 5000 cells/well in the 384-well plates and incubated at 37° C. for 2 h. 500 ng/mL of LPS was added after 2 hours and cells were incubated for another 22 hours at 37° C. Plates were spun in a centrifuge for 1 minute at […] and a mixture of anti-IL6 XL665, and anti-IL6 Cryptate diluted in reconstitution buffer (Cisbio Inc.) was added to each well. Following incubation for 3 hrs at room temperature, Homogeneous Time-Resolved Fluorescence (HTRF) was measured using the Envision (Perkin Elmer) at 665 nm and […]. The ratio of fluorescence at 665 nm to 620 nm was used as a readout for IL6 quantification. All samples were processed in duplicate. Readings were normalized to DMSO treated cells and normalized activities were utilized for EC50 calculations using the dose-response log (inhibitor) vs. response-variable slope (four parameters) nonlinear regression feature available in GraphPad Prism 5.0 (or Dotmatics). For EC50 of >10 μM, the percent inhibition at 10 μM is provided.

The test system of assay [3] is Wnt activity (Sp5-Luc reporter, TCF/LEF binding sites) in SW480 colon carcinoma cells. Put plainly: Screening assay for Wnt activity: Sp5-Luc reporter gene assay in stably transduced SW480 cells. To be noted: Homo sapiens, overnight incubation. The source says:
The screening assay for Wnt activity is described as follows. Reporter cell lines can be generated by stably transducing cancer cell lines (e.g., colon cancer) or primary cells (e.g., IEC-6 intestinal cells) with a lentiviral construct that includes a Wnt-responsive promoter driving expression of the firefly luciferase gene.
SW480 colon carcinoma cells were transduced with a lentiviral vector expressing luciferase with a human Sp5 promoter consisting of a sequence of eight TCF/LEF binding sites. SW480 cells stably expressing the Sp5-Luc reporter gene and a hygromycin resistance gene were selected by treatment with 150 μg/mL of hygromycin for 7 days. These stably transduced SW480 cells were expanded in cell culture and used for all further screening activities. Each compound was dissolved in DMSO as a 10 mM stock and used to prepare compound source plates. Serial dilution (1:3, 10-point dose-response curves starting from 10 μM) and compound transfer was performed using the ECHO 550 (Labcyte, Sunnyvale, Calif.) into 384-well white solid bottom assay plates (Greiner Bio-One) with appropriate DMSO backfill for a final DMSO concentration of 0.1%. For Sp5-Luc reporter gene assays, the cells were plated at 4,000 cells/well in 384-well plates with medium containing 1% fetal bovine serum and incubated overnight at 37° C. and 5% CO2. Following incubation, 20 μl of BrightGlo luminescence reagent (Promega) was added to each well of the 384-well assay plates. The plates were placed on an orbital shaker for 2 min and then luminescence was quantified using the Envision (Perkin Elmer) plate reader. Readings were normalized to DMSO only treated cells, and normalized activities were utilized for EC50 calculations using the dose-response log (inhibitor) vs. response-variable slope (four parameters) nonlinear regression feature available in GraphPad Prism 5.0 (or Dotmatics). For EC50 of >10 μM, the percent inhibition at 10 μM is provided.
A general note: A reporter such as luciferase makes a cellular process visible.

Assay [4] relates to SW480 colon cancer cells. Put plainly: Cell viability assay (CellTiter-Blue) in SW480 colon cancer cells. The conditions noted are these: Homo sapiens, 96 h, four days, CellTiter-Blue. Here is the method: Representative compounds were screened using the following assay procedure to assess the effect on cell viability as described below.
Each compound was dissolved in DMSO as a 10 mM stock and used to prepare compound source plates. Serial dilution (1:3, 8-point dose-response curves from 10 μM to 0.0045 μM) and compound transfer was performed using the ECHO 550 (Labcyte, Sunnyvale, Calif.) into 96-well clear bottom, black-walled plates (Corning-Costar).
Approximately 2×10^3 SW480 colon cancer cells were seeded into each well and allowed to incubate in the presence or absence of compound for four days at 37° C./5% CO2. Eight replicates of DMSO-treated cells served as controls and cells treated with compound were performed in duplicate.
After incubation, 20 μL of CellTiter-Blue (Promega) was added to each well allowed to incubate for approximately 3 hours. This reagent was a buffered solution which contains resazurin, metabolically active cells were able to reduce rezarurin (blue) into resorufin (pink) which was highly fluorescent. This measured fluorescence was used as a readout for cell viability.
After incubation, the plates were read at Ex 560 nm Em 590 nm (Cytation 3, BioTek). Dose-response curves were generated and EC50 concentration values were calculated using non-linear regression curve fit in the GraphPad Prism (San Diego, Calif.) or Dotmatics' Studies Software (Bishops Stortford, UK). For EC50 of >10 μM, the percent inhibition at 10 μM is provided.
Background: Resazurin is reduced to fluorescent resorufin, in cell work by metabolically active cells.

Regarding `CC(C)Nc1cncc(-c2cc3c(-c4cc5c(N6CCCCC6)cccc5[nH]4)n[nH]c3cn2)c1` [Compound 180, N-Isopropyl-5-(3-(4-(piperidin-1-yl)-1H-indol-2-yl)-1H-pyrazolo[3,4-c]pyridin-5-yl)pyridin-3-amine], the EC50 in assay [1] worked out at 0.267 µM; in assay [2] it was 1 µM; in assay [3], 0.362 µM; in assay [4], 1.73 µM.
Taken in the same sequence, the figures for `c1ccc(-c2cc3c(-c4cc5c(N6CCCCC6)cccc5[nH]4)n[nH]c3cn2)nc1` [Compound 196, 3-(4-(Piperidin-1-yl)-1H-indol-2-yl)-5-(pyridin-2-yl)-1H-pyrazolo[3,4-c]pyridine] were 1.16 µM, 8.78 µM, 3.42 µM and 6.06 µM.
`CN1CCN(c2cccc3[nH]c(-c4n[nH]c5cnc(-c6cncc(N)c6)cc45)cc23)CC1` [Compound 227, 5-(3-(4-(4-Methylpiperazin-1-yl)-H-indol-2-yl)-1H-pyrazolo[3,4-c]pyridin-5-yl)pyridin-3-amine]: the concentration for a half-maximal effect (EC50) in assay [1] came out at 1.91 µM; in assay [2], 1.08 µM; in assay [3], 1.16 µM; in assay [4] it was 2.61 µM.
Regarding `CN1CCN(c2cccc3[nH]c(-c4n[nH]c5cnc(-c6cncc(NC(=O)Cc7ccccc7)c6)cc45)cc23)CC1` [Compound 234, N-(5-(3-(4-(4-Methylpiperazin-1-yl)-H-indol-2-yl)-1H-pyrazolo[3,4-c]pyridin-5-yl)pyridin-3-yl)-2-phenylacetamide], the EC50 in assay [1] came out at 1.25 µM; in assay [2], 1.94 µM; in assay [3] it was 1.04 µM; in assay [4], 3.13 µM.
Taken in the same sequence, the figures for `CN(C)Cc1cncc(-c2cc3c(-c4cc5c(N6CCN(C)CC6)cccc5[nH]4)n[nH]c3cn2)c1` [Compound 237, N,N-Dimethyl-1-(5-(3-(4-(4-methylpiperazin-1-yl)-1H-indol-2-yl)-1H-pyrazolo[3,4-c]pyridin-5-yl)pyridin-3-yl)methanamine] were 7.32 µM, 3.61 µM, 3.41 µM and 3.8 µM.
`CCCCC(=O)Nc1cncc(-c2cc3c(-c4cc5c(N6CCN(C)CC6)cccc5[nH]4)n[nH]c3cn2)c1` [Compound 243, N-(5-(3-(4-(4-Methylpiperazin-1-yl)-H-indol-2-yl)-1H-pyrazolo[3,4-c]pyridin-5-yl)pyridin-3-yl)pentanamide]: the 50% effective concentration (EC50) in assay [1] was 1.01 µM; in assay [2] it was 3.23 µM; in assay [3] it was 1.05 µM; in assay [4] it was 2.14 µM.
Taken in the same sequence, the figures for `CN1CCN(c2cccc3[nH]c(-c4n[nH]c5cnc(-c6cncnc6)cc45)cc23)CC1` [Compound 251, 3-(4-(4-Methylpiperazin-1-yl)-1H-indol-2-yl)-5-(pyrimidin-5-yl)-1H-pyrazolo[3,4-c]pyridine] were 1.69 µM, 1.08 µM, 1.52 µM and 1.69 µM.
Taken in the same sequence, the figures for `CC(C)CC(=O)Nc1cncc(-c2cc3c(-c4cc5ccccc5[nH]4)n[nH]c3cn2)c1` [Compound 254, N-(5-(3-(1H-Indol-2-yl)-1H-pyrazolo[3,4-c]pyridin-5-yl)pyridin-3-yl)-3-methylbutanamide] were 0.139 µM, 0.2 µM, 0.154 µM and 1.27 µM.
Taken in the same sequence, the figures for `c1cncc(-c2cc3c(-c4cc5ccccc5[nH]4)n[nH]c3cn2)c1` [Compound 256, 3-(1H-Indol-2-yl)-5-(pyridin-3-yl)-1H-pyrazolo[3,4-c]pyridine] were 0.051 µM, 0.056 µM, 0.185 µM and 2.25 µM.
On to `c1cc(-c2ccoc2)c2cc(-c3n[nH]c4cnc(-c5ccncc5)cc34)[nH]c2c1` [Compound 326, 3-(4-(Furan-3-yl)-1H-indol-2-yl)-5-(pyridin-4-yl)-1H-pyrazolo[3,4-c]pyridine], for which the concentration giving a half-maximal response (EC50) in assay [1] worked out at 1.39 µM; in assay [2], 5.08 µM; in assay [3], 0.157 µM; in assay [4], 0.103 µM.
